The values that follow come from patent publication US7494714B2, “Surfaces that resist the adsorption of biological species” (President & Fellows of Harvard College, priority 2000, dated 2009).

Read-outs that look alike come from different tables or passages of the source.

A short description of series [1]: Contact angle of deionized water under cyclooctane. The class given is physicochemical.
A further series concerns the target T1, fibrinogen (Bos taurus, UniProt P02672+P02676+P12799).
T1 sequence (P02672 20-615): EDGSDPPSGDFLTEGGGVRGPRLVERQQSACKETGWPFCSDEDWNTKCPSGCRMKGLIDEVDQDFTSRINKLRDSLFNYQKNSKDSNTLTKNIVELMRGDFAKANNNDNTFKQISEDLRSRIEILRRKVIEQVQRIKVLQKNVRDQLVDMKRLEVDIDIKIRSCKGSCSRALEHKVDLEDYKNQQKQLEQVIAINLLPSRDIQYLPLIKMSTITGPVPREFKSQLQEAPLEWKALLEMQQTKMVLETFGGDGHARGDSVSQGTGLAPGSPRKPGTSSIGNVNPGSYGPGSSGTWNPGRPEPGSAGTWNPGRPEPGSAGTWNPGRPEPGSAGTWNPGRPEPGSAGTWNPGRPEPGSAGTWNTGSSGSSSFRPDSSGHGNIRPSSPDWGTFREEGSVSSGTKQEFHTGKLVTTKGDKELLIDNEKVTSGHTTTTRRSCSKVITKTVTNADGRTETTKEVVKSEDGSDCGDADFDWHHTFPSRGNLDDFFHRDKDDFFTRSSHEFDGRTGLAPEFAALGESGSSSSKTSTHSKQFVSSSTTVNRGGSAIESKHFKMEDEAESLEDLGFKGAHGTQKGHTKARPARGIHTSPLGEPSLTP
T1 sequence (P02676 1-468): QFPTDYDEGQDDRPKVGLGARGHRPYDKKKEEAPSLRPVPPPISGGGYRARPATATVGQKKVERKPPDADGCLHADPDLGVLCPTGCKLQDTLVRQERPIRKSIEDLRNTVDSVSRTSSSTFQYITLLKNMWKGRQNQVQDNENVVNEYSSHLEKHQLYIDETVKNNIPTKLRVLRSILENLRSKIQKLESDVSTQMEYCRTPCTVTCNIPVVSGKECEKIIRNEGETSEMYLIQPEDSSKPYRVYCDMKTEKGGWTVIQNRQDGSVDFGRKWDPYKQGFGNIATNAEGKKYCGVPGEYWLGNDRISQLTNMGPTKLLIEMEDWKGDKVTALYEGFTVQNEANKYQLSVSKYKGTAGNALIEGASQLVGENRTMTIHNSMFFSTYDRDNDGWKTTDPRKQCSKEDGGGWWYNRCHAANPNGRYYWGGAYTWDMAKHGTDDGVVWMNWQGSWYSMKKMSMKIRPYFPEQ
T1 sequence (P12799 25-444): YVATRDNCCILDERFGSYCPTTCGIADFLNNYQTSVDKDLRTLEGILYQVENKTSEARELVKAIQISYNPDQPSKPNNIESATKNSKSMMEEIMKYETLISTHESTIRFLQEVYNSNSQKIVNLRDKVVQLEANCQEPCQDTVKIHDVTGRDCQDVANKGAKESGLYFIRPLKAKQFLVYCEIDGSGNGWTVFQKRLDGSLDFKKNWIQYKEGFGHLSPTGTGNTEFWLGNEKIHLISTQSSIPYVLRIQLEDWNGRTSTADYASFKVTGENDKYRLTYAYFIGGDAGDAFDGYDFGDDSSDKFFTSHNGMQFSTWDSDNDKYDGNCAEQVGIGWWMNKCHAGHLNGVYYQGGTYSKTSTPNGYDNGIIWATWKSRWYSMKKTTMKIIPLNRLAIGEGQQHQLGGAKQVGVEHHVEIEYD
Briefly: SPR adsorption of fibrinogen to SAMs / grafted polymer films. The series is classed as binding, bovine. The settings on record: for % Fiboff (percent decrease in adsorbed protein during 10 minute PBS wash) / dR/dton fibrinogen (maximum initial rate of adsorption) / % MLfib 3 min / % MLfib 30 min: mixed SAM —CONRR′/—CO2H; for % MLfib 3 min: 1 mg/mL fibrinogen flowed 3 min, relative to —CONH(CH2)10CH3/—CO2H SAM; for % MLfib 30 min: 1 mg/mL fibrinogen flowed 30 min; for % ML 30 min / dR/dt on / % ML 3 min: fibrinogen; for % ML 30 min / dR/dt on / % Fib off: single-component SAMs (a) and mixed SAMs (b); for % ML 3 min: single-component SAMs (a, RSH) and mixed SAMs (b, RNH2).

The target of a further series is lysozyme (Gallus gallus, UniProt P00698). As to the kind of experiment: SPR adsorption of lysozyme to SAMs / grafted polymer films. The settings on record: for % Lysoff (percent decrease in adsorbed protein during 10 minute PBS wash) / dR/dton lysozyme (maximum initial rate of adsorption) / % MLlys 3 min / % MLlys 30 min: mixed SAM —CONRR′/—CO2H; for % MLlys 3 min: 1 mg/mL lysozyme flowed 3 min; for % MLlys 30 min: 1 mg/mL lysozyme flowed 30 min; for % ML 3 min / dR/dt on: lysozyme. The series is classed as binding.

The mark [2] stands for this setting: footnote b (30 minutes), single-component SAMs (a) and mixed SAMs (b).
The mark [3] stands for this setting: single-component SAMs (a) and mixed SAMs (b).

Chain of lysozyme (P00698 19-147): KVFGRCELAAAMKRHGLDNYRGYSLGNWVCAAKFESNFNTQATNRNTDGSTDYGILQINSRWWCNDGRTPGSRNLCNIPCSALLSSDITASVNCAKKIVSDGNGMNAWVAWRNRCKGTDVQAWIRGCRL

Take `CNCCN(C)C`: the θco sessile in series [1] (mixed SAM) stood at 49 degrees. Moreover, on fibrinogen, the “% Fiboff (percent decrease in adsorbed protein during 10 minute PBS wash)” value was determined as 13 ± 2%, the “dR/dton fibrinogen (maximum initial rate of adsorption)” value (“dR/dton fibrinogen” below) is 140 ± 40 RU/sec, the “% MLfib 3 min” value is listed as 23 ± 4% and the “% MLfib 30 min” value amounted to 40 ± 2%. Moreover, on lysozyme, the “% Lysoff (percent decrease in adsorbed protein during 10 minute PBS wash)” value was determined as 300 ± 30%, the “dR/dton lysozyme (maximum initial rate of adsorption)” value (“dR/dton lysozyme” below) is 400 ± 200 RU/sec, the “% MLlys 3 min” value was determined as 1.9 ± 0.1% and the “% MLlys 30 min” value is given as 14 ± 2%.
On to `C[N+](C)(C)CCN.[Cl-]`, for which the θco sessile in series [1] (mixed SAM) was 31 degrees. Moreover, at fibrinogen, the “% Fiboff (percent decrease in adsorbed protein during 10 minute PBS wash)” value came out at 6.2 ± 1%, the “dR/dton fibrinogen” value stood at 300 ± 200 RU/sec, the “% MLfib 3 min” value is 17 ± 2% and the “% MLfib 30 min” value was determined as 25 ± 4%. At lysozyme, the “% Lysoff (percent decrease in adsorbed protein during 10 minute PBS wash)” value is given as 95 ± 7%, the “dR/dton lysozyme” value is recorded as 140 ± 40 RU/sec, the “% MLlys 3 min” value was found to be 3.5 ± 0.2% and the “% MLlys 30 min” value came out at 3.9 ± 0.7%.
As to `CN1CCNCC1`, the θco sessile in series [1] (mixed SAM) is 49 degrees. At fibrinogen, the “% Fiboff (percent decrease in adsorbed protein during 10 minute PBS wash)” value turned out to be 1.0 ± 0.2%, the “dR/dton fibrinogen” value was 50 ± 30 RU/sec, the “% MLfib 3 min” value worked out at 8.2 ± 1% and the “% MLfib 30 min” value turned out to be 16 ± 0.2%. Moreover, at lysozyme, the “% Lysoff (percent decrease in adsorbed protein during 10 minute PBS wash)” value worked out at 170 ± 20%, the “dR/dton lysozyme” value is listed as 60 ± 40 RU/sec, the “% MLlys 3 min” value was 1.1 ± 0.2% and the “% MLlys 30 min” value is given as 1.0 ± 0.4%.
For the compound `O=CN1CCNCC1`, the θco sessile in series [1] (mixed SAM) is given as 38 degrees. Further, at fibrinogen, the “% Fiboff (percent decrease in adsorbed protein during 10 minute PBS wash)” value is 10 ± 2%, the “dR/dton fibrinogen” value was found to be 200 ± 50 RU/sec, the “% MLfib 3 min” value came to 23 ± 1% and the “% MLfib 30 min” value is 39 ± 1%. Also, on lysozyme, the “% Lysoff (percent decrease in adsorbed protein during 10 minute PBS wash)” value worked out at 73 ± 15%, the “dR/dton lysozyme” value is reported as 160 ± 50 RU/sec, the “% MLlys 3 min” value is recorded as 8 ± 0.3% and the “% MLlys 30 min” value was 12 ± 0.3%.
For `CC(=O)N1CCNCC1`, the θco sessile in series [1] is given as 45 degrees. Further, the θco sessile in series [1] (mixed SAM) was determined as 45 degrees. At fibrinogen, the “% ML 30 min” value is given as 38 ±0.2%, the dR/dt on came out at 120 ±70 RU/sec, the “% ML 3 min” value was found to be 17 ±1% and the “% Fiboff (percent decrease in adsorbed protein during 10 minute PBS wash)” value was 12 ± 2%. Also, on fibrinogen, the “dR/dton fibrinogen” value came out at 120 ± 70 RU/sec, the “% MLfib 3 min” value came to 17 ± 1%, the “% MLfib 30 min” value came to 38 ± 0.2% and the “% Fib off” value was determined as 12 ±2%. Besides, the “% ML 3 min” value at lysozyme (setting [2]) was 7 ±0.2%. Also, on lysozyme (setting [3]), the “% ML 3 min” value came to 8 ±1%, the dR/dt on came to 440 ±80 RU/sec and the “% Lys off” value is given as 400 ±5%. Moreover, on lysozyme, the “% Lysoff (percent decrease in adsorbed protein during 10 minute PBS wash)” value is reported as 400 ± 5%, the “dR/dton lysozyme” value was 440 ± 80 RU/sec, the “% MLlys 3 min” value is listed as 7.8 ± 1% and the “% MLlys 30 min” value was determined as 6.5 ± 0.2%.
In series [1] (mixed SAM), `CNCCN(C)C(C)=O` returned a θco sessile of 46 degrees. Besides, on fibrinogen, the “% Fiboff (percent decrease in adsorbed protein during 10 minute PBS wash)” value stood at 15 ± 1%, the “dR/dton fibrinogen” value came to 40 ± 10 RU/sec, the “% MLfib 3 min” value amounted to 2.1 ± 0.3% and the “% MLfib 30 min” value was determined as 12 ± 3%. Further, on lysozyme, the “% Lysoff (percent decrease in adsorbed protein during 10 minute PBS wash)” value was determined as 330 ± 15%, the “dR/dton lysozyme” value is reported as 170 ± 30 RU/sec, the “% MLlys 3 min” value was 0.5 ± 0.2% and the “% MLlys 30 min” value came to 3.8 ± 2%.
The compound `CC(=O)CCN` came in with a θco sessile in series [1] (mixed SAM) of 70 degrees. Also, on fibrinogen, the “% Fiboff (percent decrease in adsorbed protein during 10 minute PBS wash)” value turned out to be 16 ± 1%, the “dR/dton fibrinogen” value turned out to be 1400 ± 260 RU/sec, the “% MLfib 3 min” value amounted to 66 ± 0.3% and the “% MLfib 30 min” value is listed as 74 ± 0.3%. Besides, at lysozyme, the “% Lysoff (percent decrease in adsorbed protein during 10 minute PBS wash)” value amounted to 150 ± 10%, the “dR/dton lysozyme” value was found to be 2700 ± 400 RU/sec, the “% MLlys 3 min” value worked out at 31 ± 6% and the “% MLlys 30 min” value is 71 ± 5%.
The compound `CNCCN(C)C(=O)OC` gave a θco sessile in series [1] (mixed SAM) of 70 degrees. At fibrinogen, the “% Fiboff (percent decrease in adsorbed protein during 10 minute PBS wash)” value is on record as 20 ± 2%, the “dR/dton fibrinogen” value is recorded as 330 ± 70 RU/sec, the “% MLfib 3 min” value is on record as 26 ± 0.2% and the “% MLfib 30 min” value is on record as 58 ± 0.3%. Besides, at lysozyme, the “% Lysoff (percent decrease in adsorbed protein during 10 minute PBS wash)” value stood at 150 ± 2%, the “dR/dton lysozyme” value came out at 670 ± 50 RU/sec, the “% MLlys 3 min” value is 4.3 ± 0.2% and the “% MLlys 30 min” value is 43 ± 3%.
In turn, `CNCCN(C)C(=O)N(C)C` registered a θco sessile in series [1] (mixed SAM) of 62 degrees. Besides, at fibrinogen, the “% Fiboff (percent decrease in adsorbed protein during 10 minute PBS wash)” value came to 15 ± 2%, the “dR/dton fibrinogen” value is given as 60 ± 30 RU/sec, the “% MLfib 3 min” value worked out at 5.9 ± 0.2% and the “% MLfib 30 min” value is 25 ± 1%. For the same compound, at lysozyme, the “% Lysoff (percent decrease in adsorbed protein during 10 minute PBS wash)” value is recorded as 160 ± 10%, the “dR/dton lysozyme” value is on record as 670 ± 50 RU/sec, the “% MLlys 3 min” value is reported as 2.1 ± 0.2% and the “% MLlys 30 min” value is reported as 11 ± 0.5%.
In turn, `CNCCN(C)P(=O)(N(C)C)N(C)C` showed a θco sessile in series [1] (mixed SAM) of 63 degrees. On fibrinogen, the “% Fiboff (percent decrease in adsorbed protein during 10 minute PBS wash)” value amounted to 19 ± 1%, the “dR/dton fibrinogen” value is recorded as 120 ± 20 RU/sec, the “% MLfib 3 min” value is 0.8 ± 0.1% and the “% MLfib 30 min” value is listed as 4.3 ± 0.6%. For the same compound, on lysozyme, the “% Lysoff (percent decrease in adsorbed protein during 10 minute PBS wash)” value came out at 660 ± 15%, the “dR/dton lysozyme” value was determined as 70 ± 30 RU/sec, the “% MLlys 3 min” value was 0.2 ± 0.2% and the “% MLlys 30 min” value came to 0.3 ± 0.2%.
In turn, `NCCOCCOCCO` [Entry 3b, H(OCH2CH2)3NH2, reference compound] showed a θco sessile in series [1] of 50 degrees. Further, at fibrinogen, the “% ML 30 min” value was 2%, the dR/dt on stood at 30 RU/sec, the “% ML 3 min” value amounted to 1% and the “% Fib off” value was 11%. Also, on lysozyme (setting [2]), the “% ML 3 min” value is listed as 1%. For the same compound, on lysozyme (setting [3]), the “% ML 3 min” value came to 1% and the dR/dt on is recorded as 85 RU/sec.
Turning to `NC(CCCO)(CCCO)CCCO` [H2NC(CH2CH2CH2OH)3], in series [1] (mixed SAM), the θco sessile is recorded as 70 degrees. At fibrinogen, the “% Fiboff (percent decrease in adsorbed protein during 10 minute PBS wash)” value stood at 14 ± 0.5%, the “dR/dton fibrinogen” value was 350 ± 220 RU/sec, the “% MLfib 3 min” value is 34 ± 2.2% and the “% MLfib 30 min” value was 57 ± 0.2%. For the same compound, at lysozyme, the “% Lysoff (percent decrease in adsorbed protein during 10 minute PBS wash)” value was 140 ± 2%, the “dR/dton lysozyme” value is 1400 ± 110 RU/sec, the “% MLlys 3 min” value was determined as 30 ± 0.6% and the “% MLlys 30 min” value is 73 ± 5%.
